Experimental data reported in patent US20200131156A1, “ARYLSULFONYLPYROLECARBOXAMIDE DERIVATIVES AS Kv3 POTASSIUM CHANNEL ACTIVATORS” (H. Lundbeck A/S, priority 2018, published 2020).

Target: T1, human Kv3.4 (Homo sapiens, UniProt Q03721)
T1 construct: expressed in transfected cells
T1 sequence (Q03721 1-635): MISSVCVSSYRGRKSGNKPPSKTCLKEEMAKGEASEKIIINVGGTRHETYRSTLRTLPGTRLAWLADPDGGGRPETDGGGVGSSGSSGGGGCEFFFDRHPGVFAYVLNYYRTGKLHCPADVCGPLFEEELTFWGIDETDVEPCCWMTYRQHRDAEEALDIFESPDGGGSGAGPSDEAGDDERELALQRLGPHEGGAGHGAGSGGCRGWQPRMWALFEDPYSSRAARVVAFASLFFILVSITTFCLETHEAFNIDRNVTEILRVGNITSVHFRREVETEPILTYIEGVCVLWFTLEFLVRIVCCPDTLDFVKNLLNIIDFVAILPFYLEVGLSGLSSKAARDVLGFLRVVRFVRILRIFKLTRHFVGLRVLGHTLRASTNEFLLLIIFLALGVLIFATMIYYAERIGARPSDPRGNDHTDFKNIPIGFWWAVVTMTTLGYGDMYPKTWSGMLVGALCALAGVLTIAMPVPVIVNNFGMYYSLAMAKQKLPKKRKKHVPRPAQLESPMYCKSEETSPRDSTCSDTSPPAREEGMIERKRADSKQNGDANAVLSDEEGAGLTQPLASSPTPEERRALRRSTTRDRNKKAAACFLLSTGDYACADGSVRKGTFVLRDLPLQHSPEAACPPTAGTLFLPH
Assay: Manual patch clamp electrophysiology, HEK-293 cells stably expressing human Kv3.4
Assay type: cell-based
Conditions: for hKv3.4 ECΔ30% increase: concentration increasing current by 30% at the −10 mV step; for hKv3.4 ECΔ5 mV: concentration that shifts activation threshold by 5 mV
Protocol: Manual Patch Clamp Electrophysiological Evaluation, hKv3.1, hKv3.2, hKv3.3, hKv3.4:
HEK-293 cells stably expressing human Kv3.1b, Kv3.2, Kv3.3 or Kv3.4 were used for the experiments.
Kv3.1b, Kv3.2: Cells were cultured in MEM medium supplemented with 10% Fetal Bovine Serum, 1% Penicillin/Streptomycin, 2 mM glutamine and 0.6 mg/mL geneticin. Cells were grown to 80-90% confluency at 37° C. and 5% CO2 Kv3.3 or Kv3.4: Cells were cultured in DMEM medium supplemented with 10% Fetal Bovine Serum, 500 ug/mL Geneticidin and 1% Penicillin/Streptomycin. Cells were grown to 80-90% confluency at 37° C. and 5% CO2.
On the day of the experiment the cells were detached by TrypLE and resuspended in culture medium. Cells were centrifuged, media removed and the cells were resuspended in extracellular buffer containing (in mM): 130 Na-gluconate, 20 NaCl, 4 KCl, 1 MgCl2, 1.8 CaCl2, 10 HEPES and 5 glucose, pH 7.3 adjusted with NaOH, 310-320 mOsm
Patch-clamp recordings were performed using a manual patch-clamp system (Axon Multiclamp 700B, Digidata 1440, pCLAMP 10, Molecular Devices Corporation) with a fast perfusion system (RSC-160 Rapid solution Changer, BioLogic). Whole-cell recordings were carried out using an intracellular solution containing (in mM): 100 K-gluconate, 40 KCl, 10 HEPES, 1 EGTA, 1 MgCl2, pH 7.2 adjusted with KOH, 290-300 mOsm. Cell membrane potentials were held at −80 mV and current voltage-relationship was generated by voltage steps (50 ms duration) from −100 mV to +10 mV (in 10 mV increments) and then back to −100 mV for 50 ms, with inter-sweep interval of 3 s. The peak current amplitude of −10 mV was monitored until stable (<5% change) by using one step voltage protocol. One IV protocol was run as baseline, then compound perfusion was stared and peak current stability was monitored with single step protocol prior to the IV protocol. Single concentrations were measured per cell. Acceptable cells had seal resistance >500 MOhm, Access resistance <10 MOhm, and leak current <200 pA.
Data analysis was performed using Clampfit (V10.2) in combination with Microsoft Excel™ (Redmond, Wash., USA). Current voltage relationships were plotted from the peak current (baseline subtracted) at the individual voltage steps normalized to the vehicle addition at 10 mV. The voltage threshold for channel activation was defined as 5% activation of the peak current at 10 mV in presence of vehicle. […] The concentration needed to shift the threshold 5 mV was readout from this curve (ECΔ5 mV), as well as the ability to increase the peak current at the −10 mV step (EC30% increase). […]

SMILES	hKv3.4 ECΔ30% increase	hKv3.4 ECΔ5 mV
Cc1ccc(S(=O)(=O)n2ccc(C(=O)NCc3ncco3)c2)cc1 [Compound 86, 1-(4-methylbenzene-1-sulfonyl)-N-[(1,3-oxazol-2-yl)methyl]-1H-pyrrole-3-carboxamide]	>30 µM	14.4 µM
Cc1cnc(CNC(=O)c2ccn(S(=O)(=O)c3ccc(F)cc3C)c2)cn1 [Compound 90, 1-(4-fluoro-2-methylbenzene-1-sulfonyl)-N-[(5-methylpyrazin-2-yl)methyl]-1H-pyrrole-3-carboxamide]	>30 µM	>30 µM
